Reference: ChEMBL document CHEMBL1614632, “Trend analysis of a database of intravenous pharmacokinetic parameters in humans for 670 drug compounds” (Drug Metab Dispos, 2008)
Numbered stars: 1 amine (or outer) side, 2 acyl side, 3 side chain; on linkers, the order of the positions; unused ones are H or OH. Bridge positions count the residues as written; N and C are the ends. Square brackets hold non-standard residues; d marks the D form. Peptide text beside a SMILES is read from it. * marks the point of attachment. pTerphenylCO(4''-OnC5H11) = CCCCCOc1ccc(-c2ccc(-c3ccc(C(=O)*)cc3)cc2)cc1; Orn(4R-OH,5R-OH) = O=C([C@H](C[C@@H](O)[C@@H](O)N[*:3])N[*:1])[*:2]; hTyr(3S-OH,4S-OH) = N[C@H](C(=O)O)[C@H](O)[C@@H](O)c1ccc(O)cc1; Pro(3S-OH,4S-Me) = C[C@H]1CN[C@H](C(=O)O)[C@H]1O; Hyp = O=C(O)[C@@H]1C[C@@H](O)CN1

What was measured:
clinical [1] = conditions: human, in vivo, iv, Vdss
clinical [2] = conditions: human, in vivo, iv, CL
clinical [3] = conditions: human, in vivo, iv
clinical [4] = conditions: human, in vivo, iv, t1/2

SMILES | Vd (clinical [1]) [L/kg] | clearance (clinical [2]) [mL/min/kg] | MRT (clinical [3]) [h] | half-life (clinical [4]) [h]
CCCc1nc2c(C)cc(-c3nc4ccccc4n3C)cc2n1Cc1ccc(-c2ccccc2C(=O)O)cc1 | 5.3 | 8.4 | 11 | 20
C=CC[N+]12CC[C@@]34c5ccccc5N5/C=C6/[C@H]7C[C@H]8[C@@]9(CC[N@@+]8(CC=C)C/C7=C/CO)c7ccccc7N(/C=C(/[C@@H](C[C@@H]31)/C(=C\CO)C2)[C@H]54)[C@@H]69 (some centres undefined) | 0.32 | 1.3 | 4.1 | 3.6
CNS(=O)(=O)CCc1ccc2[nH]cc(C3CCN(C)CC3)c2c1 | 2.4 | 6.6 | 6.1 | 6.6
CNS(=O)(=O)Cc1ccc2[nH]cc(CCN(C)C)c2c1 | 1.7 | 19 | 1.5 | 1.7
CN(C)CCN(Cc1cccs1)c1ccccn1 | 3.3 | 28 | 2 | 1.6
C[C@@H]1CC2=CC(=O)CC[C@]2(C)[C@H]2CC[C@@]3(C)[C@@H](CC[C@@H]3O)[C@]12C | 0.8 | 20 | 0.67 | 0.65
CN1C(=O)[C@H](O)C[C@H]1c1cccnc1 | 0.85 | 1.8 | 7.9 | 5.9
Cn1cc(NC(=O)Nc2cc(C(=O)Nc3cc(C(=O)Nc4ccc5cc(S(=O)(=O)O)cc(S(=O)(=O)O)c5c4)n(C)c3)n(C)c2)cc1C(=O)Nc1cc(C(=O)Nc2ccc3cc(S(=O)(=O)O)cc(S(=O)(=O)O)c3c2)n(C)c1 | 0.27 | 0.0047 | 960 | 730
C#C[C@]1(OS(=O)(=O)O)CC[C@H]2[C@@H]3CCc4cc(O)ccc4[C@H]3CC[C@@]21C | 0.61 | 1.3 | 7.8 | 9.3
NCCCNc1ccc2c(CNCCO)nn3c4c(O)ccc(O)c4c(=O)c1c23 | 12 | 18 | 11 | 32
COc1cc(CC(=O)NCC(=O)N(CCC(=O)O)Cc2ccc(OC)c(OC)c2)ccc1NC(=O)Nc1ccccc1C | 0.25 | 11 | 0.38 | 1.6
CC(C)(C)[C@H](NC(=O)[C@H](CC1CCCC1)CN(O)C=O)C(=O)N1CCN(Cc2ccc3c(c2)OCO3)CC1 | 1.1 | 3.1 | 5.9 | 9.4
C[C@H](N[C@@H](CCc1ccccc1)C(=O)O)C(=O)N1Cc2ccccc2C[C@H]1C(=O)O | 0.13 | 0.93 | 2.3 | 2.3
Cc1nnc(SCC2=C(C(=O)O)N3C(=O)[C@@H](NC(=O)[C@H](O)c4ccccc4)[C@H]3SC2)s1 | 0.13 | 2.6 | 0.83 | 1
CCN1C[C@H]2CN(C)C[C@H](C1)C2OC(=O)c1ccc(Cl)cc1 (some centres undefined) | 9 | 17 | 8.8 | 8.6
N=C(N)c1ccc(CNC(=O)[C@@H]2CCN2C(=O)[C@H](NCC(=O)O)C2CCCCC2)cc1 | 0.23 | 1.9 | 2 | 1.6
COc1ccccc1N1CCN(CCCNc2cc(=O)n(C)c(=O)n2C)CC1 | 0.75 | 3.1 | 4 | 3.5
CC(=N)N1CC[C@H](SC2=C(C(=O)O)N3C(=O)[C@H]([C@@H](C)O)[C@H]3C2)C1 | 0.19 | 2.6 | 1.2 | 0.96
CN(C)/N=N/c1ccc(C(=O)O)cc1 | 0.25 | 1.3 | 3 | 2.5
CCC1=C[C@@H]2CN(C1)Cc1c([nH]c3ccccc13)[C@@](C(=O)OC)(c1cc3c(cc1OC)N(C)[C@H]1[C@@](O)(C(=O)OC)[C@H](OC(C)=O)[C@]4(CC)C=CCN5CC[C@]31[C@@H]54)C2 (stereo in doubt; form 1) [VINORELBINE] | 12 | 12 | 17 | 18
COc1cc2c(cc1OC)CN(c1cc(N)c3cc(OC)c(OC)cc3n1)CC2 [ABANOQUIL] | 6.3 | 14 | 7.6 | 5.9
C[C@H]1O[C@H](O[C@H]2[C@H](O)[C@@H](O)[C@@H](O[C@H]3[C@H](O)[C@@H](O)C(O)O[C@@H]3CO)O[C@@H]2CO)[C@H](O)[C@@H](O)[C@@H]1N[C@H]1C=C(CO)[C@@H](O)[C@H](O)[C@H]1O (some centres undefined) [ACARBOSE] | 0.32 | 2.2 | 2.4 | 2.7
N[C@H](C(=O)O)[C@@H]1CC(Cl)=NO1 [ACIVICIN] | 0.5 | 0.69 | 12 | 9.9
Nc1ncnc2c1ncn2CCOCP(=O)(O)O [ADEFOVIR] | 0.42 | 3.7 | 1.9 | 1.6
CN(C)Cc1nnc2n1-c1ccc(Cl)cc1C(c1ccccc1)=NC2 [ADINAZOLAM] | 0.98 | 6.2 | 2.6 | 2.1

SMILES | Vd (clinical [1]) [L/kg] | clearance (clinical [2]) [mL/min/kg] | MRT (clinical [3]) [h] | half-life (clinical [4]) [h]
COc1cc2nc(N(C)CCCNC(=O)C3CCCO3)nc(N)c2cc1OC (centres undefined) [ALFUZOSIN] | 1.5 | 5.9 | 4.2 | 4.8
C=CCN1CCCC1CNC(=O)c1cc2[nH]nnc2cc1OC (centres undefined) [ALIZAPRIDE] | 1.6 | 6.6 | 4 | 2.8
Cc1[nH]cnc1CN1CCc2c(c3ccccc3n2C)C1=O [ALOSETRON] | 1.1 | 8.7 | 2.1 | 1.6
Cc1nnc2n1-c1ccc(Cl)cc1C(c1ccccc1)=NC2 [ALPRAZOLAM] | 0.8 | 0.74 | 18 | 12
CC1(C)S[C@@H]2[C@H](/N=C/N3CCCCCC3)C(=O)N2[C@H]1C(=O)O [AMDINOCILLIN] | 0.37 | 6.3 | 1 | 1.1
CN(C)CCC=C1c2ccccc2CCc2ccccc21 [AMITRIPTYLINE] | 8.7 | 6.1 | 24 | 17
CC1(C)S[C@@H]2[C@H](NC(=O)[C@H](N)c3ccc(O)cc3)C(=O)N2[C@H]1C(=O)O [AMOXICILLIN] | 0.25 | 3.3 | 1.3 | 1.1
CC1(C)S[C@@H]2[C@H](NC(=O)[C@H](N)c3ccccc3)C(=O)N2[C@H]1C(=O)O [AMPICILLIN] | 0.22 | 2.8 | 1.3 | 1.4
CCCCCOc1ccc(-c2ccc(-c3ccc(C(=O)N[C@H]4C[C@@H](O)[C@@H](O)NC(=O)[C@@H]5[C@@H](O)[C@@H](C)CN5C(=O)[C@H]([C@@H](C)O)NC(=O)[C@H]([C@H](O)[C@@H](O)c5ccc(O)cc5)NC(=O)[C@@H]5C[C@@H](O)CN5C(=O)[C@H]([C@@H](C)O)NC4=O)cc3)cc2)cc1 [ANIDULAFUNGIN] ({pTerphenylCO(4''-OnC5H11)}-[Orn(4R-OH,5R-OH)]T[Hyp][hTyr(3S-OH,4S-OH)]T[Pro(3S-OH,4S-Me)]; lactam 1-C) | 0.57 | 0.21 | 45 | 40
Cc1cc(=O)n(-c2ccccc2)n1C [ANTIPYRINE] | 0.77 | 0.64 | 20 | 12
CN(C)C(=O)Oc1cc(OC(=O)N(C)C)cc(C(O)CNC(C)(C)C)c1 (centres undefined) [BAMBUTEROL] | 1.6 | 18 | 1.4 | 2.6
O=C(CCCN1CCC(n2c(O)nc3ccccc32)CC1)c1ccc(F)cc1 [BENPERIDOL] | 3.8 | 8.3 | 7.5 | 5.8
CC(C)NCC(O)COc1ccc(CCOCC2CC2)cc1 (centres undefined) [BETAXOLOL] | 4.8 | 3.4 | 24 | 17
CC(C)(C)[C@]1(O)CC2OC(=O)CC23C(=O)OC2OC(=O)[C@H](O)C231 (some centres undefined) [BILOBALIDE] | 2.5 | 10 | 4 | 3.2
CC(C)NCC(O)COc1ccc(COCCOC(C)C)cc1 (centres undefined) [BISOPROLOL] | 2.4 | 3.7 |  | 10
N#Cc1ccc2c(c1)CN(S(=O)(=O)c1cccs1)[C@H](Cc1ccccc1)CN2Cc1cnc[nH]1 [BMS-214662] | 0.84 | 9.6 | 1.4 | 1.6
O=C1CN=C(c2ccccn2)c2cc(Br)ccc2N1 [BROMAZEPAM] | 0.85 | 0.51 | 28 | 21
CCCC1O[C@@H]2C[C@H]3[C@@H]4CCC5=CC(=O)C=C[C@]5(C)[C@H]4[C@@H](O)C[C@]3(C)[C@]2(C(=O)CO)O1 (some centres undefined) [BUDESONIDE] | 3.9 | 20 | 3.2 | 2.8
C=CC1=C(C(=O)O)N2C(=O)[C@@H](NC(=O)/C(=N\OCC(=O)O)c3csc(N)n3)[C@H]2SC1 [CEFIXIME] | 0.24 | 1 |  | 3.2
O=C(O)P(=O)(O)O [FOSCARNET] | 0.5 | 2.1 |  | 4.7
CCC1=C(C)CN(C(=O)NCCc2ccc(S(=O)(=O)NC(=O)N[C@H]3CC[C@H](C)CC3)cc2)C1=O [GLIMEPIRIDE] | 0.19 | 0.5 |  | 9.95
CCC(C)n1ncn(-c2ccc(N3CCN(c4ccc(OCC5COC(Cn6cncn6)(c6ccc(Cl)cc6Cl)O5)cc4)CC3)cc2)c1=O (centres undefined) [ITRACONAZOLE] | 7.4 | 5.1 |  | 25
CC[C@H](C)C(=O)O[C@H]1C[C@H](O)C=C2C=C[C@H](C)[C@H](CC[C@@H](O)C[C@@H](O)CC(=O)O)[C@H]21 [PRAVASTATIN] | 0.46 | 14 |  | 0.78
CCCC(CCC)C(=O)O [VALPROIC ACID] | 0.14 | 0.16 |  | 12
